Data set [1] in a line: physchem. The format is physicochemical.
Data set [2] is classed as in vitro ADME, human. As for the experimental part: Non-Chemistry supplementary methods
Test compound (10 µM) was incubated with 0.5 mg/mL Human Liver Microsomes (Mixed Gender, Life Technologies) in 50 mM potassium phosphate buffer, pH7.4 in the presence of either NADPH (8mg/mL), glutathione or NADPH plus glutathione. Reactions are started by addition of 5 µL of 1 mM test compound (final concentration 10 µM, 1% solvent). Immediately, an aliquot (100 µL) of the incubation mixture was removed and mixed with acetonitrile (200 µL) to stop the reaction. A further 100 uL aliquot is removed at 90 minutes. After addition of 100 µL of water, the samples were centrifuged to sediment precipitated protein and the plates then sealed prior to analysis using a Xevo QTof Quadrupole Time-of-Flight Mass Spectrometer (Waters corporation, USA). Detection of metabolites is performed by analysis with MetabolynxXS and by manual data searching. Elemental composition of the parent ion and MS/MS analysis is used to determine the nature of the GSH adduct.
Incubations with Clozapine were performed to provide a positive control.
Met ID in human liver microsomes […]
Analysis was performed on a Waters Acquity H-Class UHPLC system equipped with a photodiode array detector and Waters Xevo Q-ToF high resolution mass spectrometer. […] After the UV detector the mobile phase flow was analysed using the QToF mass spectrometer. […]

The format of data set [3] is in vitro ADME, mouse.
A further data set relates to HepG2 cells. Put plainly: HepG2 cytotoxicity.
Data set [4] concerns MmpL3, DprE1, InhA, FadD32, Kas A hypomorph strains. The format is cell-based, Mycobacterium tuberculosis.
The subject of the next data set is Pks13 hypomorph strain. The format is cell-based, Mycobacterium tuberculosis.
The subject of data set [5] is iniBAC promoter (PiniB-LUX strain). The format is cell-based, Mycobacterium tuberculosis.
The format of data set [6] is in vitro ADME, mouse. The source holds these as a separate data set.
The subject of a further data set is M. tuberculosis (H37Rv). Put plainly: microbe, parasite or virus in culture. The format is cell-based, Mycobacterium tuberculosis.
The subject of data set [7] is M. tuberculosis H37Rv. Format: cell-based, Mycobacterium tuberculosis.
The test system of data set [8] is M. tuberculosis H37Rv. The format is in vivo. The conditions noted are these: C57BL/6J mice, oral dosing for 8 days from day 1 post-infection, qPCR.
Data set [9] is described as follows: physchem. The following applies: pH 7.4.
The next data set is described as follows: in vivo. The following applies: C57BL/6J, mouse, po.
A short description of a further data set: in vitro. The following applies: plasma.
For data set [10] the following is noted: mouse, in vivo.
For data set [11], the system named is H37Rv growing inside J774 macrophages. The experiment in a line: Intramacrophage efficacy. The conditions noted are these: 7 days of treatment. Format: cell-based, Mycobacterium tuberculosis.
For data set [12] the following is noted: after 90 min, human liver microsomes, glutathione/NADPH. For orientation: Liver microsomes are vesicles of endoplasmic reticulum, rich in cytochrome P450 enzymes.
For data set [13] the following is noted: efficacy experiment at 20 times the oral PK dose.
The conditions of data set [14]: pH 7.4.
The mark [15] stands for this setting: kinetic solubility in water, read-out: Kin. Sol.
The mark [16] stands for this setting: intrinsic clearance (Cli), CD1 mouse liver microsomes, Tables 1-4.
Where [17] appears, read: Homo sapiens, HepG2, read-out: HepG2 inhibitory concentration (IC50).
[18] abbreviates: intrinsic clearance (Cli), mouse hepatocytes, Tables 1-4.

Values after ≈ are worked out from the molar mass of the structure shown. Like-named read-outs stand apart in the source and are kept apart here. Bounds are passed on as bounds.

Description for HepG2 cells: Assays to establish HepG2 cytotoxicity, in vitro microsomal/hepatocyte metabolic stability, aqueous kinetic solubility, and in vivo pharmacokinetic profiles were all performed as previously described.[15],[35]−[37]

Consider `CN(C)c1ncnc2sc(-c3c(F)c(F)c(F)c(F)c3F)nc12.Cl` [Compound 1, CN(C)c1ncnc2sc(nc12)-c1c(c(c(c(c1F)F)F)F)F], for which the solubility kinetic came to 1.9 µM in the data set “physchem [1]” (setting [15]) and 1.9 µM in the data set “physchem [1]” (pH 7.4, aqueous buffer, kinetic from dmso stock, pH7.4, read-out: Kinetic Solubility pH7.4). Also, the “formation of the GSH adduct” value in data set [2] was “clear evidence of a significant peak corresponding to the formation of the GSH adduct”. Further, the “Mouse micro Cl” value in data set [3] (setting [16]) is given as above 50 mLmin/g. Also, the “Microsomal Cli” value in data set [3] (supplement data table) is reported as above 50 mL/min/g. In addition, in the data set on HepG2 cells (setting [17]), the IC50 was above 100 µM. Also, the “change in potency on partial depletion of InhA, FadD32 or Kas A” value in data set [4] is listed as “did not increase in potency”. In addition, in [4], the “inhibition of MmpL3 or DprE1 suggested by hypomorph strains” value is given as “not inhibiting MmpL3 or DprE1”. Moreover, the “shift in IC50 between the ± atc conditions” value with Pks13 hypomorph strain is reported as around 10 fold. Besides, the PiniB-LUX luminescent signal result in data set [5] is on record as “strong luminescent signal”. Also, in data set [6] (setting [18]), the “Mouse Heps Cl” value is listed as above 50 mLmin/g. Further, the “Hepatocyte Cli” value in [6] (supplement data table) is given as above 50 mL/min/g. The MIC is 0.12 µM with M. tuberculosis (H37Rv) (Mycobacterium tuberculosis, H37RV, read-out: H37Rv MIC A); 0.61 µM in the data set on M. tuberculosis (H37Rv) (Mycobacterium tuberculosis, H37RV, read-out: H37Rv MIC B); 0.124 µM with M. tuberculosis (H37Rv) (Mycobacterium tuberculosis, H37RV, read-out: Wk2_7H9/DPPC/ casitone/ Tyloxapol MIC); 0.6 µM in the data set on M. tuberculosis (H37Rv) (Mycobacterium tuberculosis, H37RV, read-out: Wk2_ 7H9/DPPC/ cholesterol/BSA/ Tyloxapol MIC); 0.5 µM in the data set with M. tuberculosis (H37Rv) (Mycobacterium tuberculosis, H37RV, read-out: Wk2_7H9/glucose/ BSA/Tyloxapol MIC); 0.1 µM in the data set with M. tuberculosis (H37Rv) (Mycobacterium tuberculosis, H37RV, read-out: Wk2_7H9/glucose/ casitone/ Tyloxapol MIC).

The term chromatographic logD denotes a lipophilicity value derived from retention on a column. The low end stands for a more hydrophilic compound, the high end for a more lipophilic compound. A word on the AUC(0-t): it is exposure summed from dosing to a finite time, without extrapolation to infinity. The low end stands for low exposure, the high end for high exposure. Usually Cmax stands for the peak of the concentration-time curve. As usually defined, the fraction unbound is the share of the substance not bound to proteins or other matrix. High values mean weak binding, low ones extensive binding. Take `Cc1noc(-c2nc(C)oc2NC(=O)c2c(F)c(F)c(F)c(F)c2F)n1` [Compound 43, Cc1noc(n1)-c1nc(oc1NC(=O)c1c(c(c(c(c1F)F)F)F)F)C]: the results for the “CFU reduction relative to input bacterial counts” value in the data set with M. tuberculosis H37Rv [7] (treatment for 3 days) and in the data set on M. tuberculosis H37Rv [7] (treatment for 7 days) were around 1 log units and around 2 log units, respectively. The solubility kinetic in the data set “physchem [1]” (pH 7.4, aqueous buffer, kinetic from dmso stock) was found to be 196 µM (≈ 73.3 µg/mL); in “physchem [1]” (read-out: Kin. Sol) it was 196 µM (≈ 73.3 µg/mL). Besides, the “reduction in bacterial DNA in lungs compared to the untreated control” value in the data set with M. tuberculosis H37Rv [8] is “no reduction in DNA levels”. The molecule further gave a chromatographic logD in “physchem [9]” of 1.2. This molecule displayed an area under the curve AUC(0-t) in “in vivo” of 167 µg·h/mL. This molecule also displayed a Cmax in the data set “in vivo” of 30000 ng/mL. Moreover, the “Microsomal Cli” value in data set [3] (CD1, mouse) was below 0.5 mL/min/g. In addition, in data set [3] (mouse, microsomes), the “Mouse micro Cl” value is given as below 0.5 mL/min/g. In addition, the IC50 in the data set on HepG2 cells (setting [17]) is above 100 µM. For the same molecule, in the data set “in vitro”, the fraction unbound is 0.03. Also, in data set [10], the bioavailability result is on record as “very good”. Besides, the clearance entry in data set [10] was “very good”. In [10], the half-life entry is listed as “moderate”. Further, in data set [10], the volume of distribution result is given as “limited”. Moreover, the “concentration required to exert a cidal effect” value in [11] came out at 10 µM. In [12], the parental material remaining turned out to be 57%. Besides, the “Hepatocyte Cli” value in data set [6] (mouse) is on record as 3.4 mL/min/g. Moreover, the “Mouse Heps Cl” value in [6] (mouse, hepatocytes) amounted to 3.4 mL/min/g. In addition, the MIC with M. tuberculosis (H37Rv) (Mycobacterium tuberculosis, H37RV; read-out: H37Rv MIC A) was 0.8 µM (≈ 0.299 µg/mL); with M. tuberculosis (H37Rv) (Mycobacterium tuberculosis, H37RV; read-out: H37Rv MIC B), 1.8 µM (≈ 0.674 µg/mL); in the data set on M. tuberculosis (H37Rv) (Mycobacterium tuberculosis, H37RV; read-out: Wk2_7H9/DPPC/ casitone/ Tyloxapol MIC) it was 0.8 µM (≈ 0.299 µg/mL); with M. tuberculosis (H37Rv) (Mycobacterium tuberculosis, H37RV; read-out: Wk2_ 7H9/DPPC/ cholesterol/BSA/ Tyloxapol MIC), 1.8 µM (≈ 0.674 µg/mL); with M. tuberculosis (H37Rv) (Mycobacterium tuberculosis, H37RV; read-out: Wk2_7H9/glucose/ BSA/Tyloxapol MIC), 1.8 µM (≈ 0.674 µg/mL); in the data set with M. tuberculosis (H37Rv) (Mycobacterium tuberculosis, H37RV; read-out: Wk2_7H9/glucose/ casitone/ Tyloxapol MIC), 0.7 µM (≈ 0.262 µg/mL). In addition, the “increase of Cmax in the animal efficacy study versus oral PK study” value in [13] is listed as below 3 fold.

In the case of “COC(=O)c1nn(c(c1NC(=O)c1c(c(c(c(c1F)F)F)F)F)C)C [Compound 20]”, the solubility kinetic is reported as 229 µM in “physchem [1]” (setting [15]) and 229 µM in “physchem [1]” (pH 7.4, read-out: Kinetic Solubility pH7.4). For the same molecule, the “Mouse micro Cl” value in [3] (setting [16]) amounted to 1.4 mLmin/g. For the same molecule, in [3] (supplement data table), the “Microsomal Cli” value turned out to be 1.4 mL/min/g. The IC50 in the data set with HepG2 cells (read-out: HepG2 inhibitory concentration (IC50), growth of HepG2 cells) was above 100 µM. Further, the “CHI LogD” value in [14] is 2.0. Further, in data set [6] (setting [18]), the “Mouse Heps Cl” value is 15.2 mLmin/g. Also, the “Hepatocyte Cli” value in data set [6] (supplement data table) is given as 15 mL/min/g. Moreover, the MIC with M. tuberculosis (H37Rv) (read-out: H37Rv MIC A), with M. tuberculosis (H37Rv) (read-out: H37Rv MIC B), in the data set with M. tuberculosis (H37Rv) (read-out: Wk2_7H9/DPPC/ casitone/ Tyloxapol MIC), with M. tuberculosis (H37Rv) (read-out: Wk2_ 7H9/DPPC/ cholesterol/BSA/ Tyloxapol MIC), in the data set with M. tuberculosis (H37Rv) (read-out: Wk2_7H9/glucose/ BSA/Tyloxapol MIC) and with M. tuberculosis (H37Rv) (read-out: Wk2_7H9/glucose/ casitone/ Tyloxapol MIC) was above 50 µM each time.

The record behind these values is publication PMC11915372, “Identification of a Series Containing a Pentafluorophenyl Moiety That Targets Pks13 to Inhibit Growth of Mycobacterium tuberculosis” (ACS Infectious Diseases, 2025).
